In the kinase profiling compilation of Christmann-Franck et al. (2016):

How the values were obtained:
Experiment in all cases: KINOMEscan competition binding
Settings in all cases: compound 10.0 µM
STK38L (human) = STK38L (human) (UniProt Q9Y2H1)
MELK (human) = MELK (human) (UniProt Q14680)
MAP3K10 (human) = MAP3K10 (human) (UniProt Q02779)
FLT3 (human) = FLT3 (human) (UniProt P36888)
STK25 (human) = STK25 (human) (UniProt O00506)
GRK7 (human) = GRK7 (human) (UniProt Q8WTQ7)
PRKCI (human) = PRKCI (human) (UniProt P41743)
CAMK1D (human) = CAMK1D (human) (UniProt Q8IU85)
[1] = tested on: EGFR (human), P00533 [G719S]
TAOK1 (human) = TAOK1 (human) (UniProt Q7L7X3)
[2] = tested on: MET (human), P08581 [Y1235D]
ERBB2 (human) = ERBB2 (human) (UniProt P04626)
NLK (human) = NLK (human) (UniProt Q9UBE8)
DSTYK (human) = DSTYK (human) (UniProt Q6XUX3)
ADCK3 (human) = ADCK3 (human) (UniProt Q8NI60)
PRKD1 (human) = PRKD1 (human) (UniProt Q15139)
PRKCQ (human) = PRKCQ (human) (UniProt Q04759)
RPS6KA5 KD2 (human) = RPS6KA5 KD2 (human) (UniProt O75582)
FLT4 (human) = FLT4 (human) (UniProt P35916)
RPS6KA6 KD2 (human) = RPS6KA6 KD2 (human) (UniProt Q9UK32)
NEK1 (human) = NEK1 (human) (UniProt Q96PY6)
PIK3C2G (human) = PIK3C2G (human) (UniProt O75747)
AKT2 (human) = AKT2 (human) (UniProt P31751)
[3] = tested on: ABL1 (human), P00519 [Y253F]
CLK1 (human) = CLK1 (human) (UniProt P49759)
NEK11 (human) = NEK11 (human) (UniProt Q8NG66)
PKN3 (M.tuberculosis) = PKN3 (M.tuberculosis) (UniProt Q6P5Z2)
MAP2K4 (human) = MAP2K4 (human) (UniProt P45985)
RET (human) = RET (human) (UniProt P07949)
GAK (human) = GAK (human) (UniProt O14976)
SGK3 (human) = SGK3 (human) (UniProt Q96BR1)
CLK3 (human) = CLK3 (human) (UniProt P49761)
PIP5K1C (human) = PIP5K1C (human) (UniProt O60331)
ROS1 (human) = ROS1 (human) (UniProt P08922)
HCK (human) = HCK (human) (UniProt P08631)
EPHB6 (human) = EPHB6 (human) (UniProt O15197)
MAP2K7 (human) = MAP2K7 (human) (UniProt O14733)
STK35 (human) = STK35 (human) (UniProt Q8TDR2)
FGR (human) = FGR (human) (UniProt P09769)
MAK (human) = MAK (human) (UniProt P20794)
[4] = tested on: RET (human), P07949 [M918T]
DDR1 (human) = DDR1 (human) (UniProt Q08345)

Chain of STK38L (human) (Q9Y2H1 whole entry, looked up): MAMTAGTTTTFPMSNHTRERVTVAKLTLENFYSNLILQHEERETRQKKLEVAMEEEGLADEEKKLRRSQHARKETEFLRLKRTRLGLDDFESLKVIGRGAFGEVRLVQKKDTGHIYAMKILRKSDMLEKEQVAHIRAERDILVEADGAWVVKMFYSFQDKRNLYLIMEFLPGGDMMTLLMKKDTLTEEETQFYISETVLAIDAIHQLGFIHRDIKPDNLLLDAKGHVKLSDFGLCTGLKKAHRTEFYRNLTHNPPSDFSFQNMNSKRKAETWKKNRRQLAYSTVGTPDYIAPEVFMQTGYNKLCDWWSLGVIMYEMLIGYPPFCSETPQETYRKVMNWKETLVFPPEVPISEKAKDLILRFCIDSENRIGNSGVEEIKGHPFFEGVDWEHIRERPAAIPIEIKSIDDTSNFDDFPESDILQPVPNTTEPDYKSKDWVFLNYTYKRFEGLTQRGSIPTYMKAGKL
Chain of PIK3C2G (human) (O75747 whole entry, looked up): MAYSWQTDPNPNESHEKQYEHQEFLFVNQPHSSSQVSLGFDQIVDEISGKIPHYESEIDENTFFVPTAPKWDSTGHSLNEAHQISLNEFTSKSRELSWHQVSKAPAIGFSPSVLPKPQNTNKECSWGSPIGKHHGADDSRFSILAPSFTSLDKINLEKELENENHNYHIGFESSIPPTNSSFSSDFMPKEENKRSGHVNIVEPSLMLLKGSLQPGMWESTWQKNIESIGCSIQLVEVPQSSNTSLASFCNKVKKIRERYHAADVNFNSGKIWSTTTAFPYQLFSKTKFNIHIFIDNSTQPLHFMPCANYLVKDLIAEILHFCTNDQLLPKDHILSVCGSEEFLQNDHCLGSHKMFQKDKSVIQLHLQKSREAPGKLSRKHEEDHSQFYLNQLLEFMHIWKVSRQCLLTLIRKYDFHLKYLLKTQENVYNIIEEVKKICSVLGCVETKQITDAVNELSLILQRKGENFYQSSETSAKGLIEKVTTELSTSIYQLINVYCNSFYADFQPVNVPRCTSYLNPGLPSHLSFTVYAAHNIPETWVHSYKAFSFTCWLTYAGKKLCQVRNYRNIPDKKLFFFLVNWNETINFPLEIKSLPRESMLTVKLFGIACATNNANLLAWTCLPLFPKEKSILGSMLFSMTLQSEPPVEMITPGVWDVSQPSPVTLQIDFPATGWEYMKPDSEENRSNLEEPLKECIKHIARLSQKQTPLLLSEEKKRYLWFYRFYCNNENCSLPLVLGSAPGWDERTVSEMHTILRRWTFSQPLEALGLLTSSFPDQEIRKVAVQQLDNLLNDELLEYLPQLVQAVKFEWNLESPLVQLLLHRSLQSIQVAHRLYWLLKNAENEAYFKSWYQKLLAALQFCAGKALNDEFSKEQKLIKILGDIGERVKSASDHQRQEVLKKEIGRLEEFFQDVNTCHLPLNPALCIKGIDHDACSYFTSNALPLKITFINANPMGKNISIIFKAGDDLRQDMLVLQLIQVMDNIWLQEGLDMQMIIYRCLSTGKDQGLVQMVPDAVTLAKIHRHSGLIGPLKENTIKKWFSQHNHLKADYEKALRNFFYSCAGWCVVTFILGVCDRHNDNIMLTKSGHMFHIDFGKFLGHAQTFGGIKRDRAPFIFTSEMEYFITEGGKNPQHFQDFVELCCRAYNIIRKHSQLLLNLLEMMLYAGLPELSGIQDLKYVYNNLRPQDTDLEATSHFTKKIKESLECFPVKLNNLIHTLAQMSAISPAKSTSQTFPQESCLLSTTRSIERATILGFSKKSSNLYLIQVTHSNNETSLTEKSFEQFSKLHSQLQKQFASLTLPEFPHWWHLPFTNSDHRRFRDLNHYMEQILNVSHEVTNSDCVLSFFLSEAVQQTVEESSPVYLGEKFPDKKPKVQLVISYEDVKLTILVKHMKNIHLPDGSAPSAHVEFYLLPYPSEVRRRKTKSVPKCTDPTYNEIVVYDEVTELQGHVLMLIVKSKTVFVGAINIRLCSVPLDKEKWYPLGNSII
Chain of PKN3 (M.tuberculosis) (Q6P5Z2 whole entry, looked up): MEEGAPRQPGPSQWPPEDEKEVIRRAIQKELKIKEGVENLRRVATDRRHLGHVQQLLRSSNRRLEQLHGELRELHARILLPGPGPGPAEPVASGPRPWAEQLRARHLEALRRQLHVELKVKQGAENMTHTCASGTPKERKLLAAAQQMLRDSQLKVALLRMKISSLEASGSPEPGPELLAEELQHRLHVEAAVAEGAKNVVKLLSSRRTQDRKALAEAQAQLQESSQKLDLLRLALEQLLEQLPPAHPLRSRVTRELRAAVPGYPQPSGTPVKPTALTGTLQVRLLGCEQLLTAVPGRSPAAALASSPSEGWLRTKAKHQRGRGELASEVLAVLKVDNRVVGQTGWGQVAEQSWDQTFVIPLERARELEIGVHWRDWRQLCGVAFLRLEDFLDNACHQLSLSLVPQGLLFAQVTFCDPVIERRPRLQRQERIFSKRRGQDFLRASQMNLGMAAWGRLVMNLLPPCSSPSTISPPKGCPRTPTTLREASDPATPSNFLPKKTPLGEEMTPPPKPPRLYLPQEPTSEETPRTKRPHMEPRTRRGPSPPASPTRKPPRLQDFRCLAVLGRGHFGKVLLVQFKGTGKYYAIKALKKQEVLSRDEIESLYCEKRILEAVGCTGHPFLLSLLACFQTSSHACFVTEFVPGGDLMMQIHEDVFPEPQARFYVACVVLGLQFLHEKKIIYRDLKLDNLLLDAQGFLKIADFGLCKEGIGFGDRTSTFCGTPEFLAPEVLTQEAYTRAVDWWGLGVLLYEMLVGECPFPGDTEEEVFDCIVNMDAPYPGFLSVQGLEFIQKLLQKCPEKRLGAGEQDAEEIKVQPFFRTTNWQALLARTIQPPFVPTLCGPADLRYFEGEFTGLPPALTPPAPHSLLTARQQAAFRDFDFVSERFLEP
Chain of RET (human), P07949 [M918T] (P07949 whole entry M918T, looked up): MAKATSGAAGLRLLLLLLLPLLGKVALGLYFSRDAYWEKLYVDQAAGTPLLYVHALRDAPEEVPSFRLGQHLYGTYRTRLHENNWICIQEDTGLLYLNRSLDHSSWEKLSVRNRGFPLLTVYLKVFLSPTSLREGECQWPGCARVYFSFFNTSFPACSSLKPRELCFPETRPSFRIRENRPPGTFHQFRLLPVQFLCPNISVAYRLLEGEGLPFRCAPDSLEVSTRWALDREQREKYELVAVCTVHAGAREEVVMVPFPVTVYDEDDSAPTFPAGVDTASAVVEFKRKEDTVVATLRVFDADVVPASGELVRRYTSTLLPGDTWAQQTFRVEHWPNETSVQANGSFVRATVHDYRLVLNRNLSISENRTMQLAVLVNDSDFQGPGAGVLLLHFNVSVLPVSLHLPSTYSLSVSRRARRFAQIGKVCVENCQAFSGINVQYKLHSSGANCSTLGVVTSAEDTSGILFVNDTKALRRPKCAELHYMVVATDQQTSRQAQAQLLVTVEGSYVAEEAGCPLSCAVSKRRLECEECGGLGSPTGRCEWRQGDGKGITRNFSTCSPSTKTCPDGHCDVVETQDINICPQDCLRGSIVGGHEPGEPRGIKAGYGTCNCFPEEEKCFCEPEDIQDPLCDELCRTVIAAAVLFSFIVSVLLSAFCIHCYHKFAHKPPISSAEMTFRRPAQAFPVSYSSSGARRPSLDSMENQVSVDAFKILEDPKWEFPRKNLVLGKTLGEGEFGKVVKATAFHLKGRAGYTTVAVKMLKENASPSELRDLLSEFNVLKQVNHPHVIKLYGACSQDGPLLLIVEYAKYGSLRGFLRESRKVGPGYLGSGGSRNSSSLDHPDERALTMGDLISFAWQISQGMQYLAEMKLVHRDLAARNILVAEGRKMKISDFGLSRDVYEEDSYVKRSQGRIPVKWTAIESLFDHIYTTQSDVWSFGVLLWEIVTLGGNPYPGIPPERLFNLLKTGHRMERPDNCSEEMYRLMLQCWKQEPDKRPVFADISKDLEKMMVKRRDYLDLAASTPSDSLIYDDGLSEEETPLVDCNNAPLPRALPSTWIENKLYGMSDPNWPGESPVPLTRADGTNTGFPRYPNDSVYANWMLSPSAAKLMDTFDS
Chain of CLK3 (human) (P49761 whole entry, looked up): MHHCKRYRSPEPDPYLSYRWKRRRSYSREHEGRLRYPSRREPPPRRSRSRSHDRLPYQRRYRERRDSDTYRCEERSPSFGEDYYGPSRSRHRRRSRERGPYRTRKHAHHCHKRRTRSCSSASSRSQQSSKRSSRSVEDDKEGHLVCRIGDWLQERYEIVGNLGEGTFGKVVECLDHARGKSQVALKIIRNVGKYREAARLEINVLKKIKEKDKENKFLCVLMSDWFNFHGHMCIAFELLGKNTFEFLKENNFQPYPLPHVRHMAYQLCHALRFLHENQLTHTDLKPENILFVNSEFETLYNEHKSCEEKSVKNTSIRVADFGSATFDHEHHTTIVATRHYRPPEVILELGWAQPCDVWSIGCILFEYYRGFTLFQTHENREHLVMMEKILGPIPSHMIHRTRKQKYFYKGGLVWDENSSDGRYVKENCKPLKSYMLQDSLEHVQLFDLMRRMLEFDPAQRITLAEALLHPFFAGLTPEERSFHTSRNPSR
Chain of FGR (human) (P09769 whole entry, looked up): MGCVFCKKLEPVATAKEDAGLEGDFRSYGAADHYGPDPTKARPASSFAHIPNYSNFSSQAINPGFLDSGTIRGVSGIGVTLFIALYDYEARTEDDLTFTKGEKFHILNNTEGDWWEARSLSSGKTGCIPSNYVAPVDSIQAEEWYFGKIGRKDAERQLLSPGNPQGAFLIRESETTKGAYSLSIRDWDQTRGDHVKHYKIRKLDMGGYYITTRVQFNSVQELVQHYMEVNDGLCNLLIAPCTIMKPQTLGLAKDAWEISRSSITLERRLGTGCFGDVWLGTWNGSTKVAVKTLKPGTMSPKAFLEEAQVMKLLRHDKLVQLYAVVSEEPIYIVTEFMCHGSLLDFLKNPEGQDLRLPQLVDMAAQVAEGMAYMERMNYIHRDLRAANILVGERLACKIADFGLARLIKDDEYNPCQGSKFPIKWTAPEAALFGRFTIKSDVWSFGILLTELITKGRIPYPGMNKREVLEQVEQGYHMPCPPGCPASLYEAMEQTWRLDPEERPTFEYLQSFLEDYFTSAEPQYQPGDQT
Chain of RET (human) (P07949 whole entry, looked up): as the sequence (P07949 whole entry M918T, looked up) above, with T918M counted along it

SMILES: Cc1cc([C@@H](C)Nc2ccccc2C(=O)O)c2nc(N3CCOCC3)cc(=O)n2c1
- kinase still bound, per cent of control (STK38L (human)): 92%
- kinase still bound, per cent of control (MELK (human)): 100%
- kinase still bound, per cent of control (MAP3K10 (human)): 96%
- kinase still bound, per cent of control (FLT3 (human)): 4.2%
- kinase still bound, per cent of control (STK25 (human)): 100%
- kinase still bound, per cent of control (GRK7 (human)): 100%
- kinase still bound, per cent of control (PRKCI (human)): 94%
- kinase still bound, per cent of control (CAMK1D (human)): 93%
- kinase still bound, per cent of control [1]: 100%
- kinase still bound, per cent of control (TAOK1 (human)): 79%
- kinase still bound, per cent of control [2]: 93%
- kinase still bound, per cent of control (ERBB2 (human)): 96%
- kinase still bound, per cent of control (NLK (human)): 100%
- kinase still bound, per cent of control (DSTYK (human)): 90%
- kinase still bound, per cent of control (ADCK3 (human)): 70%
- kinase still bound, per cent of control (PRKD1 (human)): 100%
- kinase still bound, per cent of control (PRKCQ (human)): 100%
- kinase still bound, per cent of control (RPS6KA5 KD2 (human)): 100%
- kinase still bound, per cent of control (FLT4 (human)): 100%
- kinase still bound, per cent of control (RPS6KA6 KD2 (human)): 71%
- kinase still bound, per cent of control (NEK1 (human)): 100%
- kinase still bound, per cent of control (PIK3C2G (human)): 16%
- kinase still bound, per cent of control (AKT2 (human)): 100%
- kinase still bound, per cent of control [3]: 100%
- kinase still bound, per cent of control (CLK1 (human)): 56%
- kinase still bound, per cent of control (NEK11 (human)): 68%
- kinase still bound, per cent of control (PKN3 (M.tuberculosis)): 100%
- kinase still bound, per cent of control (MAP2K4 (human)): 70%
- kinase still bound, per cent of control (RET (human)): 96%
- kinase still bound, per cent of control (GAK (human)): 83%
- kinase still bound, per cent of control (SGK3 (human)): 100%
- kinase still bound, per cent of control (CLK3 (human)): 95%
- kinase still bound, per cent of control (PIP5K1C (human)): 55%
- kinase still bound, per cent of control (ROS1 (human)): 84%
- kinase still bound, per cent of control (HCK (human)): 60%
- kinase still bound, per cent of control (EPHB6 (human)): 40%
- kinase still bound, per cent of control (MAP2K7 (human)): 100%
- kinase still bound, per cent of control (STK35 (human)): 96%
- kinase still bound, per cent of control (FGR (human)): 76%
- kinase still bound, per cent of control (MAK (human)): 100%
- kinase still bound, per cent of control [4]: 100%
- kinase still bound, per cent of control (DDR1 (human)): 81%
